Experimental data: ChEMBL document CHEMBL3286148, “Aminoazabenzimidazoles, a novel class of orally active antimalarial agents” (J Med Chem, 2014)
≈ marks a conversion by molar mass, not a printed value. Calls of active or inactive are those of the source. No cut-off for these calls is given here.

Key:
Plasmodium falciparum [1] = experiment: microbe, parasite or virus in culture; settings: W2, 72 h
Description: Antiplasmodial activity against Plasmodium falciparum W2 after 72 hrs by SYBR I method

Plasmodium falciparum [2] = experiment: microbe, parasite or virus in culture; settings: Dd2, 72 h
Description: Antiplasmodial activity against Plasmodium falciparum Dd2 after 72 hrs by SYBR I method

Plasmodium falciparum [3] = experiment: microbe, parasite or virus in culture; settings: K1, 72 h
Plasmodium falciparum [4] = experiment: microbe, parasite or virus in culture; settings: SB1, 72 h
Description: Antiplasmodial activity against Plasmodium falciparum SB1 after 72 hrs by SYBR I method

Plasmodium falciparum [5] = experiment: microbe, parasite or virus in culture; settings: NF54, 72 h
Plasmodium falciparum [6] = experiment: microbe, parasite or virus in culture; settings: 7G8, 72 h
Description: Antiplasmodial activity against Plasmodium falciparum 7G8 after 72 hrs by SYBR I method

Plasmodium falciparum [7] = experiment: Antiplasmodial activity against Plasmodium falciparum Dd2 harboring DHODH mutant; assay type: functional, organism-based
Plasmodium falciparum [8] = experiment: Antiplasmodial activity against Plasmodium falciparum Dd2 harboring CYTb-Qi mutant; assay type: functional, organism-based
Plasmodium falciparum [9] = experiment: Antiplasmodial activity against Plasmodium falciparum Dd2; assay type: functional, organism-based
Plasmodium falciparum [10] = experiment: Antiplasmodial activity against Plasmodium falciparum Dd2 harboring CRT mutant; assay type: functional, organism-based
Plasmodium falciparum [11] = experiment: Antiplasmodial activity against Plasmodium falciparum Dd2 harboring HSP90 mutant; assay type: functional, organism-based
[12] = Clearance in human liver microsomes; assay type: ADME; settings: read-out: CLH
[13] = Selectivity index, ratio of IC50 for human A549 cells to IC50 for Plasmodium falciparum; assay type: toxicity, cell-based; settings: read-out: Ratio IC50
[14] = Clearance in rat hepatocytes assessed per 1E6 cells; assay type: ADME, cell-based, Hepatocyte; settings: read-out: CLH
[15] = biological target: Voltage-gated inwardly rectifying potassium channel KCNH2 (Homo sapiens, UniProt Q12809); experiment: Inhibition of human ERG
Plasmodium falciparum [16] = experiment: Antiplasmodial activity against chloroquine and pyrimethamine-sensitive Plasmodium falciparum 3D7A assessed as parasite reduction ratio at 10 times IC50 after 48 hrs; assay type: functional, organism-based
[17] = Fraction unbound in human plasma; assay type: ADME, cell-free
[18] = Clearance in mouse liver microsomes; assay type: ADME; settings: read-out: CLH
Cytochrome P450 2C19 = Cytochrome P450 2C19 (Homo sapiens, UniProt P33261); experiment: Inhibition of CYP2C19 (unknown origin); assay type: ADME
Cytochrome P450 3A4 = Cytochrome P450 3A4 (Homo sapiens, UniProt P08684); experiment: Inhibition of CYP3A4 (unknown origin); assay type: ADME
Cytochrome P450 2D6 = Cytochrome P450 2D6 (Homo sapiens, UniProt P10635); experiment: Inhibition of CYP2D6 (unknown origin); assay type: ADME
[19] = Aqueous solubility of the compound; assay type: physicochemical; settings: buffer
Cytochrome P450 2C9 = Cytochrome P450 2C9 (Homo sapiens, UniProt P11712); experiment: Inhibition of CYP2C9 (unknown origin); assay type: ADME
[20] = Lipophilicity, log D of the compound; assay type: physicochemical; settings: octanol/water
Cytochrome P450 1A2 = biological target: T1, Cytochrome P450 1A2 (Homo sapiens, UniProt P05177); experiment: Inhibition of CYP1A2 (unknown origin); assay type: ADME
T1 sequence (P05177 whole entry): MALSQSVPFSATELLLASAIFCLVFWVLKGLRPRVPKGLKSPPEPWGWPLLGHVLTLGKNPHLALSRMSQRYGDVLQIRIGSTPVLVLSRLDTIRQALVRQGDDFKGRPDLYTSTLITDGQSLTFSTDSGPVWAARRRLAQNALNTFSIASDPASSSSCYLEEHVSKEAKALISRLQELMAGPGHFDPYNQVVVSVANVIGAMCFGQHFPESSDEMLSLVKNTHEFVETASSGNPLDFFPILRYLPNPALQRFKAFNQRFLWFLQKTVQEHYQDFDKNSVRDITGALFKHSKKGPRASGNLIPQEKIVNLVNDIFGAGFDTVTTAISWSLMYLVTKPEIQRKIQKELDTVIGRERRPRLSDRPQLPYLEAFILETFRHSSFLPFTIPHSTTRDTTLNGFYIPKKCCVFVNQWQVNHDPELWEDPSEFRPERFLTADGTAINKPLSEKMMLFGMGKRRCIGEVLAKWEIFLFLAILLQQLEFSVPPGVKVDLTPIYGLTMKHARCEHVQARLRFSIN

Voltage-gated inwardly rectifying potassium channel KCNH2, sequence (Q12809 whole entry): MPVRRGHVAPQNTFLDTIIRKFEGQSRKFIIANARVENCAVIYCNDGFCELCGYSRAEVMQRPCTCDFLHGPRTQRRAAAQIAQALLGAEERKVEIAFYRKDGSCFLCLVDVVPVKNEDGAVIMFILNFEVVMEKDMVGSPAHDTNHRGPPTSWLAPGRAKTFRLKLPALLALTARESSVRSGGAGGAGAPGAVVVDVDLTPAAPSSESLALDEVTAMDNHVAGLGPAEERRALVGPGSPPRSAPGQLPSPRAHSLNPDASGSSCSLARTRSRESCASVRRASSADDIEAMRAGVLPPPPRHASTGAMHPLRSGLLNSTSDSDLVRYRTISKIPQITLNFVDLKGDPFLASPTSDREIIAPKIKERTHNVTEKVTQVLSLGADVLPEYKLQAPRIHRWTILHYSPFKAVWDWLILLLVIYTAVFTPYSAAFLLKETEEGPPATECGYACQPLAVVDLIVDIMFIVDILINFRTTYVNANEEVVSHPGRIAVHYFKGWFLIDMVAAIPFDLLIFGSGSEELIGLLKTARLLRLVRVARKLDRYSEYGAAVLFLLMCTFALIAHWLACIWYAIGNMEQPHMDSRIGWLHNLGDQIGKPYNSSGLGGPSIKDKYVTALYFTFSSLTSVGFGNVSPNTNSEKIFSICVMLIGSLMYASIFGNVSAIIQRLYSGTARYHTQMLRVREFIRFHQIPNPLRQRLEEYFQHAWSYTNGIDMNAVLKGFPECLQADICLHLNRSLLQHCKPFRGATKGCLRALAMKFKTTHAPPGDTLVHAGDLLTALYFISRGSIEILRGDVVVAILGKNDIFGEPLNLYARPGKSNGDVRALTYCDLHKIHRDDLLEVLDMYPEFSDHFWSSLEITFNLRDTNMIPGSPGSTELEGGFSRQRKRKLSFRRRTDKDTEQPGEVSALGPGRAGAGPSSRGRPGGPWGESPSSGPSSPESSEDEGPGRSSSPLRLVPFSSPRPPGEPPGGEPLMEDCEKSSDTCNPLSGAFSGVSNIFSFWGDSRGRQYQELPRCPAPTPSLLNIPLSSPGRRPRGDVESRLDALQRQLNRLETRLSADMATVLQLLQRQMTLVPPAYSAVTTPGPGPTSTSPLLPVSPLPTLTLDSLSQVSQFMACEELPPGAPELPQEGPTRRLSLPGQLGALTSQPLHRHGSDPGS
Cytochrome P450 2D6, sequence (P10635 whole entry): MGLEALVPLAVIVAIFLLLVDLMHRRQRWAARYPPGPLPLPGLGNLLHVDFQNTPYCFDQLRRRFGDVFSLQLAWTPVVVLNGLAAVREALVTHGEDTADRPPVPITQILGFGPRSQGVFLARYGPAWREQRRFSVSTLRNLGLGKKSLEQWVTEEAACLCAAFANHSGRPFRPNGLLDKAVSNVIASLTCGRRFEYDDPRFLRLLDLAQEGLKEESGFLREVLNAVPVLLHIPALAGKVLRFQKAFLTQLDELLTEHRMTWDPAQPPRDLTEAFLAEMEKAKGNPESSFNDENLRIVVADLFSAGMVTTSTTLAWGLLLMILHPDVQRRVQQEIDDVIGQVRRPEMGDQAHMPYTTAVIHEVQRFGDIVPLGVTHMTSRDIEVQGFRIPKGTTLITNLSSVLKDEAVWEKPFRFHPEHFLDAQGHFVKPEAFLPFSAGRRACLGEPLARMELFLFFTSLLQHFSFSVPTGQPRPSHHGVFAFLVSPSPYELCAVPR
Cytochrome P450 3A4, sequence (P08684 whole entry): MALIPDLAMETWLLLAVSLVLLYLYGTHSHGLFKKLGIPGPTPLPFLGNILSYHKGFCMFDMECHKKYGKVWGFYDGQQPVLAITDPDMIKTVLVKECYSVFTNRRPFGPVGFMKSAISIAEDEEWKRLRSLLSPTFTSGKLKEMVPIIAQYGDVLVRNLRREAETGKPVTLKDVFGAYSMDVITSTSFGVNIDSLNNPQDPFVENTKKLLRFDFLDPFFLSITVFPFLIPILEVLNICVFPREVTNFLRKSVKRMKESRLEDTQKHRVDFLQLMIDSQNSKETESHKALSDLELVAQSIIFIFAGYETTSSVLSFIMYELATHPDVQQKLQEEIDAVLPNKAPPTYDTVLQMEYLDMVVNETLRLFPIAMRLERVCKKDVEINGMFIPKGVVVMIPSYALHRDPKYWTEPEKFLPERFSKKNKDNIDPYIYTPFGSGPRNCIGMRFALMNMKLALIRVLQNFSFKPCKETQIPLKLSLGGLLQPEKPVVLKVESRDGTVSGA
Cytochrome P450 2C19, sequence (P33261 whole entry): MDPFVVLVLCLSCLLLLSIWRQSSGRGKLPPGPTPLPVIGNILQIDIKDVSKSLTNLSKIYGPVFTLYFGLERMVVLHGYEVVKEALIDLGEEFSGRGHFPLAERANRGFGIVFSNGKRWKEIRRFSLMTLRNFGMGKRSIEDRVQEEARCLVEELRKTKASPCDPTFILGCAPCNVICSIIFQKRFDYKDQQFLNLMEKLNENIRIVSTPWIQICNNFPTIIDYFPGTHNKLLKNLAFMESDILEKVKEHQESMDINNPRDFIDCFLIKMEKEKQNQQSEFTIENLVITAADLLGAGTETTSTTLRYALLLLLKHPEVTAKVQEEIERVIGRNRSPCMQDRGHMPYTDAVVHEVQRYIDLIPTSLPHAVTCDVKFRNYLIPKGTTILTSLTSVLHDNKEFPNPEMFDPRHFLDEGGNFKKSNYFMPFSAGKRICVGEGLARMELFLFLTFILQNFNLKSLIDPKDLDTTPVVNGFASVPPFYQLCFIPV
Cytochrome P450 2C9, sequence (P11712 whole entry): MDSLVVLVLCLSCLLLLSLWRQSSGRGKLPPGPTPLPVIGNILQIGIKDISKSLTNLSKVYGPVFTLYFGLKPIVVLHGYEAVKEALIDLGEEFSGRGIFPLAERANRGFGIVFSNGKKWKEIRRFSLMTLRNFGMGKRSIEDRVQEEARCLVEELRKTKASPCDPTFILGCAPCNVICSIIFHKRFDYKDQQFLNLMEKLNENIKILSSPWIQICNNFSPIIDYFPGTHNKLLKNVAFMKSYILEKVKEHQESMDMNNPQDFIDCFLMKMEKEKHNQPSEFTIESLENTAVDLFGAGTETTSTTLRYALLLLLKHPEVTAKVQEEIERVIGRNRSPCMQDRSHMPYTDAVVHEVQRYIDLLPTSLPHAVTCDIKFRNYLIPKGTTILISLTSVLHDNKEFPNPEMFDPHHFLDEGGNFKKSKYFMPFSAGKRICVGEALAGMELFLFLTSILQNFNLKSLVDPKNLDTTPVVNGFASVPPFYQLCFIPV

Compound `CCc1nc(N)nc(N)c1-c1ccc(Cl)cc1` [PYRIMETHAMINE] has an IC50 (Plasmodium falciparum [1]) of 15400 nM, an IC50 (Plasmodium falciparum [2]) of 13800 nM and an IC50 (Plasmodium falciparum [3]) of 8560 nM. For the same compound, the IC50 (Plasmodium falciparum [4]) was 10.8 nM, the IC50 (Plasmodium falciparum [5]) was 28.3 nM and the IC50 (Plasmodium falciparum [6]) was 10000 nM.

`CN1CCN(C(=O)c2ccc3c(c2)N(Cc2c(F)cccc2Cl)C(=O)c2ccccc2S3)CC1` gave an IC50 (Plasmodium falciparum [7]) of 16.9 nM, an IC50 (Plasmodium falciparum [8]) of 3.16 nM and an IC50 (Plasmodium falciparum [9]) of 7.3 nM. For the same compound, the IC50 (Plasmodium falciparum [10]) was 1040 nM and the IC50 (Plasmodium falciparum [11]) was 8.42 nM.

For `Nc1nc2ccc(Cl)cc2n1CC(O)c1cccc(Cl)c1Cl` (racemic), the microsomal CLint [12] was 49 µL/min/mg, the selectivity ratio [13] was 2.3 and the IC50 (Plasmodium falciparum [3]) was 40 nM. For the same compound, the hepatocyte CLint [14] was 22 µL/min/1e6 cells, the IC50 [15] was > 33300 nM and the IC50 (Plasmodium falciparum [5]) was 320 nM.

In the case of `Cc1cn(CC(O)c2ccc(Cl)cc2Cl)c(N)n1` (racemic), the IC50 (Plasmodium falciparum [3]) is reported as 250 nM and the IC50 (Plasmodium falciparum [5]) is reported as 380 nM.

For `Nc1nc2ccc(OC3CCOC3)nc2n1CC(O)c1ccc(C(F)(F)F)cc1Cl` (racemic), the Activity (Plasmodium falciparum [16]) was “Active”, the fraction unbound [17] was 0.026 and the microsomal CLint [12] was 76 µL/min/mg. For the same compound, the microsomal CLint [18] was 90 µL/min/mg, the IC50 (Cytochrome P450 2C19) was 780 nM and the IC50 (Cytochrome P450 3A4) was 2400 nM. For the same compound, the selectivity ratio [13] was 800, the IC50 (Plasmodium falciparum [3]) was 18 nM and the hepatocyte CLint [14] was 105 µL/min/1e6 cells. For the same compound, the IC50 (Cytochrome P450 2D6) was 12500 nM, the solubility [19] was 160 µM (≈ 70.9 µg/mL) and the IC50 (Cytochrome P450 2C9) was > 30000 nM. It also gave an IC50 [15] of 16600 nM, a logD [20] of 3.7 and an IC50 (Plasmodium falciparum [5]) of 25 nM. For the same compound, the IC50 (Cytochrome P450 1A2) was > 30000 nM.

For `CS(=O)(=O)c1ccc2nc(N)n(CC(O)c3cccc(Cl)c3Cl)c2c1` (racemic), the microsomal CLint [12] was 68 µL/min/mg, the selectivity ratio [13] was > 50 and the IC50 (Plasmodium falciparum [3]) was > 2000 nM. For the same compound, the hepatocyte CLint [14] was 44 µL/min/1e6 cells, the IC50 [15] was > 33300 nM and the IC50 (Plasmodium falciparum [5]) was > 2000 nM.

With `Nc1nc2ccc(OC3CNC3)nc2n1CC(O)c1ccc(C(F)(F)F)cc1Cl` (racemic) the microsomal CLint [12] was < 4 µL/min/mg, the selectivity ratio [13] was > 50 and the IC50 (Plasmodium falciparum [3]) was > 500 nM. The hepatocyte CLint [14] was 14 µL/min/1e6 cells, the IC50 [15] was > 33300 nM and the IC50 (Plasmodium falciparum [5]) was > 2000 nM.

In the case of `Nc1nc2ccc(C(F)(F)F)cc2n1CC(O)c1ccc(C(F)(F)F)cc1Cl` (racemic), the IC50 (Plasmodium falciparum [1]) is reported as 24.1 nM, the fraction unbound [17] is reported as < 0.01 and the IC50 (Plasmodium falciparum [2]) is reported as 48.7 nM. For the same compound, the microsomal CLint [12] was 9 µL/min/mg, the microsomal CLint [18] was 62 µL/min/mg and the IC50 (Cytochrome P450 2C19) was 2700 nM. The IC50 (Cytochrome P450 3A4) was > 30000 nM, the selectivity ratio [13] was 94 and the IC50 (Plasmodium falciparum [3]) was 10 nM. The hepatocyte CLint [14] was 31 µL/min/1e6 cells, the IC50 (Cytochrome P450 2D6) was 26300 nM and the solubility [19] was 3 µM (≈ 1.27 µg/mL). The IC50 (Plasmodium falciparum [4]) was 121 nM, the IC50 (Cytochrome P450 2C9) was 27900 nM and the IC50 [15] was > 10500 nM. For the same compound, the logD [20] was > 4.6, the IC50 (Plasmodium falciparum [5]) was 53 nM and the IC50 (Cytochrome P450 1A2) was 29400 nM. It also gave an IC50 (Plasmodium falciparum [6]) of 3.25 nM.

`CN1CCN(c2ccc3nc(N)n(CC(O)c4ccc(C(F)(F)F)cc4Cl)c3n2)CC1` (racemic) gave an IC50 (Plasmodium falciparum [1]) of 156 nM, a fraction unbound [17] of 0.234 and an IC50 (Plasmodium falciparum [2]) of 370 nM. The microsomal CLint [12] was 21 µL/min/mg, the microsomal CLint [18] was 102 µL/min/mg and the IC50 (Cytochrome P450 2C19) was 5000 nM. The IC50 (Cytochrome P450 3A4) was 14100 nM, the selectivity ratio [13] was 348 and the IC50 (Plasmodium falciparum [3]) was 85 nM. For the same compound, the hepatocyte CLint [14] was 106 µL/min/1e6 cells, the IC50 (Cytochrome P450 2D6) was 27900 nM and the solubility [19] was 118 µM (≈ 53.7 µg/mL). The IC50 (Plasmodium falciparum [4]) was 220 nM, the IC50 (Cytochrome P450 2C9) was > 30000 nM and the IC50 [15] was 12200 nM. The logD [20] was 2.8, the IC50 (Plasmodium falciparum [5]) was 89 nM and the IC50 (Cytochrome P450 1A2) was > 30000 nM. For the same compound, the IC50 (Plasmodium falciparum [6]) was 37.9 nM.

For `Nc1nc2ccc(C3CC3)nc2n1CC(O)c1ccc(Cl)cc1Cl` (racemic), the microsomal CLint [12] was 47 µL/min/mg, the microsomal CLint [18] was > 130 µL/min/mg and the selectivity ratio [13] was > 260. It also gave an IC50 (Plasmodium falciparum [3]) of 22 nM, a hepatocyte CLint [14] of 94 µL/min/1e6 cells and an IC50 (Plasmodium falciparum [5]) of 96 nM.

`N#Cc1ccc2nc(N)n(CC(O)c3cccc(Cl)c3Cl)c2c1` (racemic) gave a microsomal CLint [12] of 96 µL/min/mg, an IC50 (Plasmodium falciparum [3]) of 300 nM and a hepatocyte CLint [14] of 53 µL/min/1e6 cells. The IC50 (Plasmodium falciparum [5]) was 29 nM.

Compound `Nc1nccn1CC(O)c1cccc(Cl)c1Cl` (racemic) has an IC50 (Plasmodium falciparum [3]) of 230 nM and an IC50 (Plasmodium falciparum [5]) of 350 nM.

`Cc1nc2c(C#N)cccc2n1-c1ccc(C(=O)NC2CC2)s1` gave an IC50 (Plasmodium falciparum [7]) of 76.8 nM, an IC50 (Plasmodium falciparum [8]) of 9.94 nM and an IC50 (Plasmodium falciparum [9]) of 5.79 nM. It also gave an IC50 (Plasmodium falciparum [10]) of 5.07 nM and an IC50 (Plasmodium falciparum [11]) of 16.2 nM.

In the case of `C[C@@H]1CC[C@H]2[C@@H](C)C(=O)O[C@@H]3O[C@@]4(C)CC[C@@H]1[C@]32OO4` [ARTEMISININ], the IC50 (Plasmodium falciparum [1]) is reported as 6.52 nM, the IC50 (Plasmodium falciparum [2]) is reported as 10.3 nM and the IC50 (Plasmodium falciparum [7]) is reported as 1.81 nM. It also gave an IC50 (Plasmodium falciparum [8]) of 1.26 nM, an IC50 (Plasmodium falciparum [3]) of 6.47 nM and an IC50 (Plasmodium falciparum [9]) of 1.51 nM. For the same compound, the IC50 (Plasmodium falciparum [10]) was 1.84 nM, the IC50 (Plasmodium falciparum [4]) was 16.6 nM and the IC50 (Plasmodium falciparum [5]) was 7.05 nM. The IC50 (Plasmodium falciparum [6]) was 1.3 nM and the IC50 (Plasmodium falciparum [11]) was 1.29 nM.

With `Nc1nccn1CC(O)c1ccc(Cl)cc1Cl` (racemic) the selectivity ratio [13] was > 263, the IC50 (Plasmodium falciparum [3]) was 280 nM and the IC50 (Plasmodium falciparum [5]) was 380 nM.

In the case of `Cc1nc(N)n(CC(O)c2ccc(Cl)cc2Cl)c1C` (racemic), the selectivity ratio [13] is reported as 220, the IC50 (Plasmodium falciparum [3]) is reported as 200 nM and the IC50 [15] is reported as > 33300 nM. The IC50 (Plasmodium falciparum [5]) was 300 nM.
